Patent EP2307018B1, “OXYMATRINE COMPOSITIONS AND USE THEREOF FOR TREATING AND PREVENTING CHRONIC INFECTIOUS DISEASES” (Chia, John K.S., priority 2008, dated 2010)

Tests used:
[1] = test system: Coxsackie B virus (CBV) 3, CVB4 and echovirus 9; assay: case report Example 2, treatment of chronic fatigue; assay type: in vivo, human
Method: A person with episodes of diarrhea while traveling to Tonga developed severe respiratory infection soon thereafter. The symptoms consisted of fevers to 105°F, night sweats, diffuse myalgia, tachycardia, fatigue, sinus congestion and cough, and unresponsiveness to antibiotics. The patient developed profound fatigue thereafter and went on total disability three months after the onset of symptoms. Initial Coxsackie B virus (CBV) 3, CVB4 and echovirus 9 antibody titers were 1:320, 1:160, 1:80 (normal <1:10), respectively.
The patient could not work for the next 18 months. They were started on oxymatrine at 300 mg twice a day (bid). After taking oxymatrine for two months, they were able to take short walks, but still exhausted after one hour of activity requiring five hour naps. At the end of three months of therapy, they started having fevers of 104-105°F for several days with marked decrease in diffuse myalgia. […] CVB3, CVB4 and echovirus antibody three months after therapy were 1:160, 1:160 and 1:20, respectively.

enterovirus [2] = assay: case report Example 4, treatment of chronic fatigue; assay type: in vivo, human
Method: A person with a known history of frequent respiratory infections and vasovagal syncope developed respiratory infection, which was followed by bedridden fatigue. Enteroviral protein was detected in the stomach biopsy consistent with chronic enterovirus infection. […] After vigorous exercise, they would still have relapses of bedridden fatigue for one day but continued to work 10-12 hours per day for the next 12 months, walking two miles per day. Laboratory tests were normal while on therapy.

coxsackievirus B = conditions: in vitro; mechanism not defined; cited from earlier work
[3] = case report Example 11, treating diarrhea; assay type: in vivo, human; conditions: after starting 200 mg bid
Source text: A person developed continuing watery diarrhea, as many as twenty episodes a day, and mild fatigue for three months. Laboratory studies and stool work-up were completely negative. […] They failed Asacol therapy.

enterovirus [4] = assay: case report Example 5, treatment of chronic fatigue; assay type: in vivo, human
Method: A person developed debilitating fatigue, sore throat, oral ulcers, vertigo, headaches and cognitive dysfunction two months after having a flu-like illness. […] Approximately four years later, the patient started taking oxymatrine. After an initial increase of gastrointestinal symptoms for the first two weeks, the patient tolerated 500 mg per day of oxymatrine.
The symptoms continued for two weeks and resolved after stopping oxymatrine. […] They continued to improve for 12 months after taking the medication.

enterovirus [5] = assay: open-label, controlled oxymatrine clinical study in ME/CFS patients with enterovirus infection; assay type: in vivo, human
Method: An open-label, controlled study was conducted on patients who fulfilled the international criteria for myalgic encephalomyelitis (ME)/chronic fatigue syndrome (CFS) and had virological evidence of enterovirus infection.
One hundred patients took oxymatrine at dose of 200-300 mg twice a day with or without food for a minimum of three months. Patients who could not complete the course due to side effects or intolerance were considered as failures (intent-to-treat analysis). Of the first group, 52% (52/100) responded to oxymatrine, as compared to 6% (7/114) of the control groups (p <0.000001, X^2 test). Of the next 104 patients, 52% responded to treatment. […] Fifty-three percent (57/107) of patients with elevated […] (CVB) and echovirus (Ech) antibody responded to therapy and 50% (49/97) of patients with non-typeable EV infections improved (NS, X^2 test). Fifty-two percent (47/91) of patients with positive EV protein in stomach biopsies responded, whereas 56% (5/9) of patients with negative biopsies responded (NS, X^2 test).

hepatitis B = conditions: oral, after one year of treatment; comparable to interferon-α injection; cited from earlier work
cytokine gene expression = cytokine gene expression study on blood samples before and after oxymatrine (FIG. 4); assay type: in vivo, human; conditions: blood samples before and after taking oxymatrine for 15 months, one patient
Source text: A cytokine gene expression study on blood samples before (Sample 2) and after (Sample 3) taking oxymatrine for 15 months in one patient, is graphically illustrated in FIG. 4. […] FIG. 5 illustrates that neutralizing antibodies CBV 3 and CBV 4 were obtained serially over a three year period (performed by ARUP laboratory, Salt Lake City, UT).

enterovirus [6] = assay: case report Example 12, treating diarrhea; assay type: in vivo, human
Source text: A person developed severe watery diarrhea for two months. Stool evaluation was unremarkable. […] They continued to do well for six months on the medication.

[7] = side effects in 176 patients having taken oxymatrine

## O=C1CCC[C@@H]2[C@H]3CCC[N+]4([O-])CCC[C@@H](CN12)[C@@H]34 (some centres unmarked) [oxymatrine]
[1]; 300 mg bid for three months, three months after finishing the medication, previously on total disability
  clinical outcome: went back to full-time work
[1]; at the end of three months of therapy, for several days, with marked decrease in diffuse myalgia
  fevers: 104-105 °F
[1]; during therapy, calcium resolved after stopping hydrochlorothiazide
  laboratory studies including CBC and complete chemistry panel: normal except mildly elevated calcium levels
[1]; in vivo
  relapse after therapy: had not relapsed for at least one year after therapy
Enterovirus [2]; after taking the medication for six weeks, previously bedridden fatigue
  clinical outcome: returned to full-time work
Enterovirus [2]; in vivo
  tolerability: tolerated well without any adverse reactions
Enterovirus [2]; while on therapy
  laboratory tests: normal
Coxsackievirus B
  growth inhibition of coxsackievirus B in cell cultures: growth inhibition
[3]
  diarrhea: resolved completely in a few days
Enterovirus [4]; three months after stopping oxymatrine
  clinical outcome: only had mild symptoms and was able to return to part-time work and regular exercise
Enterovirus [4]; two months after taking the medication, 500 mg per day, continued two weeks, resolved after stopping
  adverse symptoms: severe diffuse ulcerations of the mouth mucosa, increasing headache, sinus congestion and severe myalgia
Enterovirus [5]; compared to baseline values
  changes of other chemistry parameters and complete blood counts (CBC): no significant changes
Enterovirus [5]; eighty-seven percent
  patients who relapsed responded to restart of oxymatrine: 13/15
Enterovirus [5]; first group (52/100), 200-300 mg twice a day, minimum three months, intent-to-treat, control groups 6% (7/114), p <0.000001
  patients responded to oxymatrine: 52%
Enterovirus [5]; human, in vivo
  patients reporting transient, moderate increase in pre-existing symptoms: more than 50%
  patients with elevated blood pressure that prompted discontinuation of therapy: 2/204
  serious complications during therapy: No serious complications
Enterovirus [5]; most of the patients, except for variable increase of pre-existing symptoms during the first 1-2 days of maximal doses
  tolerability: tolerated oxymatrine well
Enterovirus [5]; next 104 patients
  patients responded to treatment: 52%
Enterovirus [5]; patients with elevated chrysanthemum virus B (CVB) and echovirus (Ech) antibody, fifty-three percent
  patients responded to therapy: 57/107
Enterovirus [5]; patients with negative biopsies (5/9)
  patients responded: 56%
Enterovirus [5]; patients with non-typeable EV infections (49/97)
  patients improved: 50%
Enterovirus [5]; patients with positive EV protein in stomach biopsies, fifty-two percent
  patients responded: 47/91
Enterovirus [5]; returned to normal without specific treatment
  patients with transient increase in potassium: 2/204
Enterovirus [5]; [7]
  Diffuse rashes: % of total patients: < 1%
  Dry eyes and mouth: % of total patients: 1%
  Fevers: % of total patients: 2%
  Herpes simplex virus outbreak after discontinuation: % of total patients: 1%
  Increase in blood pressure: % of total patients: 1%
  Increase in edema: % of total patients: 1%
  Increased abdominal pain: % of total patients: 6%
  Increased bladder symptoms: % of total patients: 2%
  Increased diarrhea: % of total patients: 4%
  Increased dizziness: % of total patients: 2%
  Increased fatigue: % of total patients: 4%
  Increased headache: % of total patients: 8%
  Increased insomnia: % of total patients: 1%
  Increased myalgia: % of total patients: 30%
  Increased nausea: % of total patients: 6%
  Increased palpitation, chest pain: % of total patients: 3%
  Increased polyarthralgia: % of total patients: 1%
  Increased sinus congestion: % of total patients: 3%
  Inflammation of skin lesion: % of total patients: 1%
  New rashes: % of total patients: < 1%
  Seizure (petit mal): % of total patients: < 1%
  Weight gain: % of total patients: 1%
Enterovirus [5]; within the first eight weeks, twenty patients
  patients who stopped oxymatrine due to intolerable side effects: 10%
Enterovirus [5]; within two days to one month after discontinuation, fifty-nine percent
  patients relapsed after discontinuation of oxymatrine: 19/32
Hepatitis B
  overall cure rate: about 40%
Cytokine gene expression
  Th1 cytokines gene expression (interleukin-2, interleukin-12, interleukin-15): significant increase
  regulatory Th2 cytokine gene expression (interleukin-10): significant decrease
Enterovirus [6]; after starting oxymatrine
  diarrhea: resolved within one week
Enterovirus [6]; resolved after increasing the dosage
  effect of decrease of medication to half the dose: relapse of the symptoms
